The test system of one data set is Sprague Dawley rats. The protocol:
This study examined acute toxicity from single IV administration of mCBS in rats with doses up to 1000 mg/kg.
The acute toxicity of β-O-methyl cellobioside sulfate (mCBS) was assessed in Sprague Dawley rats following intravenous administration of a single bolus dose. A total of five groups of n=3 adult female rats were treated with 10, 30, 100, 300 and 1000 mg/kg doses of mCBS test item in the form of the sodium salt (mCBS.Na) in this dose range finding study. […] The rats were then observed for 7 days prior to termination without necropsy.

A short description of another data set: Solubility in vehicle. Type of data set: physicochemical. Particulars: in water/aqueous. As to the method:
The STX studies described below were carried out inter alia to provide a preliminary understanding of the toxicity and PK profile of β-O-methyl cellobioside sulfate compounds such as mCBS.Na utilised in the present invention.

For a further data set, the system named is Sprague-Dawley rats. Particulars: 5575 mg/kg/day of mCBS (free base), continuous IV infusion 7 days. As to the method: The objective of these studies was to determine the toxicity of the test item, mCBS, when administered by continuous (24 hours/day) intravenous infusion through a surgically implanted catheter for 7 consecutive days to Sprague-Dawley rats.
The test and control item dose formulations of mCBS (in the form of the heptasodium salt mCBS.Na) were administered to groups of rats by continuous (24 hours/day) intravenous infusion for 7 consecutive days as described in the Table 14 below.
Parameters monitored during this study included mortality, clinical observations, body weights and food consumption. In addition, hematology, coagulation and clinical chemistry parameters were evaluated on Day 9. Blood samples were collected from the animals at timepoints relative to the start of the infusion for analysis of test item concentration in plasma. At termination (Day 9), all animals were euthanized and subjected to a gross necropsy examination. Organ weights were measured on selected organs and a selected list of tissues, including gross lesions, were retained and prepared for microscopic evaluation.

Consider “Sodium β-O-Methyl Cellobioside Sulfate [mCBS.Na]”, for which the “MTD estimate from potency assessment, sodium salt” value with Sprague Dawley rats (IV bolus single and 7-day studies, corrected for potency) is listed as approximately 745 mg/kg. Moreover, the “maximum tolerated dose (MTD)” value with Sprague Dawley rats (single IV bolus, female rats, 7 days observation, dose as sodium salt) was 1000 mg/kg. In addition, in the data set “Solubility in vehicle”, the “Solubility in Vehicle” value was approximately 250 mg/mL in water/aqueous. In addition, the mortality entry in the data set with Sprague-Dawley rats is reported as “death of one female”.

Values taken from US11628179B2, “Compounds for treating and preventing extracellular histone mediated pathologies” (priority 2017, dated 2023).
